Data on two compounds can be found in patent US11203597B2, “Crystalline spirocyclic compound, a dosage form containing, a method for using in treatment of disease, and a method for recrystallizing” (Altavant Sciences GmbH, priority 2018, dated 2021).

Values after ≈ are worked out from the molar mass of the structure shown.

One series has as its target T1, TPH1 (Mus musculus, UniProt P17532).
T1 construct: host or cells: mice (in vivo)
T1 sequence (P17532 1-447): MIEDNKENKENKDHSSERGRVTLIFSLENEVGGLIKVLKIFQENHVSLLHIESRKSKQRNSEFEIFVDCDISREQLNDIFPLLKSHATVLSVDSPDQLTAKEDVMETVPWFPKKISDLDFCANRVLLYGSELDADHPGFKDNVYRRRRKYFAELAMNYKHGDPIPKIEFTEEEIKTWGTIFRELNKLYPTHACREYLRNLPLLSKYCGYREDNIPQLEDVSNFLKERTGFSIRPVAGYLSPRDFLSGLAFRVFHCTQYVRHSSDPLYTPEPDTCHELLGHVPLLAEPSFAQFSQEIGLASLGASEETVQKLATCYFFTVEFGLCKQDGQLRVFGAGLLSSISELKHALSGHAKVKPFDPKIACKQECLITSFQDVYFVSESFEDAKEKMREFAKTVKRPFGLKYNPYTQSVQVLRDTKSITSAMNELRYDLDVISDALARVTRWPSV
The following applies: U.S. Pat. No. 9,199,994, Example 63i and Table 27; cited from earlier work.

The nature of series [1]: Solubility of Compound 1, Form 3 in MTBE/n-heptane mixtures. The series is classed as physicochemical. Conditions: organic solvent or mixture, thermodynamic from solid. How it is done: Solubility of Compound 1, Form 3
The solubility of Compound 1 was evaluated in mixtures of MTBE/n-heptane mixtures at 10° C. and 45° C. The form of the residual solids was examined by XRPD.

Series [2] is described as follows: Shake-flask solubility determination with stepwise addition of solvent. Type of series: physicochemical. The source says:
The method applied was a shake-flask solubility determination with stepwise addition of the solvent until complete dissolution is observed visually.

Series [3] can be described thus: Solubility determination by HPLC. Type of series: physicochemical. The following applies: ethanol. An excerpt:
Because of the small differences in solubilities, HPLC was used to measure the solubilities. The values were conformed to the shake-flask results. […] In alcohol, there was a difference in dissolution rate. This difference was not observed for aqueous solutions.

Series [4] can be described thus: Thermodynamic stability of polymorphs. Type of series: physicochemical. The following applies: particularly at temperatures of less than 95° C., more particularly less than 80° C.

Regarding `CCOC(=O)[C@@H]1CC2(CCN(c3cc(O[C@H](c4ccc(Cl)cc4-c4ccccc4)C(F)(F)F)nc(N)n3)CC2)CN1` [(S)-ethyl 8-(2-amino-6-((R)-1-(5-chloro-[1,1′-biphenyl]-2-yl)-2,2,2-trifluoroethoxy)pyrimidin-4-yl)-2,8-diazaspiro[4.5]decane-3-carboxylate], the “efficacy in inhibiting TPH1 in mice” value on TPH1 is reported as “demonstrated”.

The solubility is how much of the substance goes into solution per volume. As for `CCOC(=O)[C@@H]1CC2(CCN(c3cc(O[C@H](c4ccc(Cl)cc4-c4ccccc4)C(F)(F)F)nc(N)n3)CC2)CN1` [Form 3, (S)-ethyl 8-(2-amino-6-((R)-1-(5-chloro-[1,1′-biphenyl]-2-yl)-2,2,2-trifluoroethoxy)pyrimidin-4-yl)-2,8-diazaspiro[4.5]decane-3-carboxylate], the solubility in series [1] (MTBE/n-heptane 1/0, 45 °C) is more than 500 mg/mL; in series [1] (MTBE/n-heptane 1/1, 10 °C) it was 27.2 mg/mL (≈ 46.1 mM); in series [1] (MTBE/n-heptane 1/1, 45 °C), 89.4 mg/mL (≈ 152 mM); in series [1] (MTBE/n-heptane 1/2, 10 °C), 17.5 mg/mL (≈ 29.7 mM); in series [1] (MTBE/n-heptane 1/4, 10 °C) it was 6.2 mg/mL (≈ 10.5 mM); in series [1] (MTBE/n-heptane 1/5, 45 °C), 4.2 mg/mL (≈ 7.12 mM). Besides, the solubility in series [2] (2-methyl-tetrahydrofuran) is 106 to 1060 mg/mL; in series [2] (2-propanol), less than 10.1 mg/mL; in series [2] (I-propanol) it was 35 to 104 mg/mL; in series [2] (N,N-dimethyl-acetamide) it was 108 to 1080 mg/mL; in series [2] (acetic acid) it was 104 to 1040 mg/mL; in series [2] (acetone), 108 to 1080 mg/mL. Also, the solubility in series [2] (acetonitrile) was 99 to 990 mg/mL; in series [2] (dimethyl sulfoxide) it was 109 to 1090 mg/mL; in series [2] (ethanol), 33 to 100 mg/mL; in series [2] (ethyl acetate), 95 to 950 mg/mL; in series [2] (formic acid 99%) it was 96 to 960 mg/mL; in series [2] (isopropyl acetate), 94 to 940 mg/mL. For the same compound, the solubility is 102 to 1020 mg/mL in series [2] (methanol); 100 to 1000 mg/mL in series [2] (methyl isobutyl); 106 to 1060 mg/mL in series [2] (methyl tert-butyl ether); less than 9.9 mg/mL in series [2] (n-heptane); 99 to 990 mg/mL in series [2] (tetrahydrofuran); 105 to 1050 mg/mL in series [2] (toluene). The solubility in series [2] (water) is reported as less than 10.0 mg/mL. In series [3], the “dissolution of remaining slurry in time” value is recorded as “dissolved completely”. The “thermodynamic stability compared to crystalline Form 1” value in series [4] is “substantially greater thermodynamic stability”.
